Test results: patent US12655174B2, “Adenosine A3 receptor agonists, preparation methods and uses thereof” (ZHEJIANG VIMGREEN PHARMACEUTICALS, LTD., priority 2020, dated 2026)

Assays:
[1] = molecular target: T1, ADORA3 receptor (CHO cells stably expressing ADORA3 receptor) (Homo sapiens, UniProt P0DMS8); test: Effect of compound on intracellular cAMP level by adenosine A3 receptor agonism; format: cell-based; settings: forskolin-stimulated
T1 construct: expressed in transfected cells
T1 sequence (P0DMS8 1-318): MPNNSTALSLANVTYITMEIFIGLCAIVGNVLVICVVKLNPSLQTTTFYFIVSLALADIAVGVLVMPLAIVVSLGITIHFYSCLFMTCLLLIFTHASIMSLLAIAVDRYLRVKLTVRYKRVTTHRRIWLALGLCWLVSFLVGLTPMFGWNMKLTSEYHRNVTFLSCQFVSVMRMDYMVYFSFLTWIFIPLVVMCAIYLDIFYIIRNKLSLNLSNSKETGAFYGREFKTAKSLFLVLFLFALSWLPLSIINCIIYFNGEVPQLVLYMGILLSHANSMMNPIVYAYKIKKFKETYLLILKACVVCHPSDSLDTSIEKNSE
In short: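 Agonism read as change in forskolin-stimulated cAMP by TR-FRET competition (Eu-cAMP tracer, ULight anti-cAMP antibody). Compound tested as 10 three-fold dilutions on ADORA3-CHO cells in buffer containing rolipram, incubated at 37 °C. Hill fit of % activation against log concentration gives EC50.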

ADORA3 receptor = molecular target: T2, ADORA3 receptor (Homo sapiens, UniProt P0DMS8); test: Agonistic effect on adenosine A3 receptor by FLIPR assay (calcium flux assay); format: cell-based; settings: agonist mode
T2 sequence (P0DMS8 1-318): T1 sequence (P0DMS8 1-318)
Description: Example 27: Agonistic Effect of Compound on Adenosine A3 Receptor by FLIPR Assay (Calcium Flux Assay)
First Day: Cell Inoculation
• 1) With regard to ADORA3 receptor, cultured cells were used for inoculation: the culture medium was aspirated and the cells were washed twice with 10 mL of DPBS. 2 mL of 0.05% EDTA-trypsin was added and the cells were incubated at 37° C. for 1 minute. Then 10 mL of the culture medium was added to stop the digestion and the cell suspension was transferred to a 50-mL tapered tube. • 2) The 50-mL tapered tube containing the various cells was centrifuged at 300 g for 5 minutes. • 3) A supernatant was aspirated and no cells should be aspirated. • 4) The cell precipitate was resuspended in 6-8 mL of the culture medium, and then 0.5 mL of the cells were taken out for cell counting by using a Vi-cell XR cell viability analyzer. • 5) The cell suspension was diluted to 1×10^6 cells/mL (20 μL of 20,000 cells per well) in the culture medium and the cells were inoculated into a cell plate (384-well Poly-D-lysine protein-coated plate, Greiner-781946). • 6) The plate was placed in a 37° C./5% CO2 incubator for 16-20 hours. Second Day: • 1) Preparation of 2×Fluo-4 Direct™ uptaking dye • a. Preparation of probenecid solution • 1 mL of FLIPR assay buffer was added to 77 mg of probenecid (provided by Fluo-4 Direct™ calcium assay kit) to be prepared into 250 mM of a probenecid solution. The fresh probenecid solution was used daily. • b. 2×(8 μM) Fluo-4 Direct™ loading dye (per 10 mL)
A vial of the Fluo-4 Direct™ crystal was thawed and then 10 mL of the FLTPR analytical buffer was added to the vial. Then 0.2 mL of 250 mM of a probe solution was added to every 10 mL Fluo-4 Direct™ crystal to a final assay concentration of 2.5 mM. The solution was vortexed and stood for >5 min at a dark place. 2×Fluo-4 Direct™ uptaking dye was freshly prepared daily. • 2) Compound preparation • a. Preparation of compound plate: all reference and test compounds were serially diluted 4-fold in 10 points by using an Echo liquid processor and then 900 nL of the diluted compounds were transferred to a compound plate. • b. 30 μL FLIPR analytical buffer was added to the compound plate and the plate was centrifuged at 300 g for 1 minute. • 3) FLIPR analysis • a. With regard to ADORA3 receptor: firstly, the cell plate was taken out from a culture box. The culture medium was then aspirated and 20 μL of the FLIPR analytical buffer was added. The cell plate was placed in an incubator for 45 minutes and at a room temperature for 15 minutes. • b. To run an experimental solution on […], 10 μL of the FLIPR analytical buffer was transferred from the compound plate to a cell plate, and then the fluorescent signal was read. Then 10 μL of a compound solution was transferred from the compound plate to the cell plate and the fluorescence signal was read. “Max−min” was calculated from Reader 91 to an allowed maximum value. • c. With regard to agonist: activation %=(RLU−LC)/(HC−LC)*100, • wherein RLU=relative light unit, allowed maximum signal was 91; HC=average signal of high concentration agonist; and LC=mean signal of DMSO well. • d. Data were fitted to a model “log (agonist) versus response-variable slope” by using GraphPad Prism 5 to determine an EC50 value. • e. […] 2. Test Result

[2] = Pharmacokinetic test of compound in SD rat; format: in vivo; settings: SD rats, intragastric administration (IG), cassette dosing
Description: Example 28: Pharmacokinetic Test of Compound in SD Rat
The animal species used in this experiment were SD rats. There were 3 animals per group. The rats were dosed in cassette format, i.e., multiple (1-6) different compounds were dosed simultaneously to the same group of the SD rats. The vehicle used for the drug was 5% DMSO+5% Solutl+90% ([…] methylcellulose M450), and the administration route was intragastric administration (IG).

Structure (SMILES) | EC50 [1] [nM] | EC50 (ADORA3 receptor) [nM] | AUC_D [2] [kg·ng·h/mL/mg]
CNC(=O)[C@H]1O[C@@H](n2cnc3c(NCc4cc(C)ccn4)nc(-c4cncc(F)c4)nc32)[C@H](O)[C@@H]1O [compound 71, (2S,3S,4R,5R)-5-(2-(5-fluoropyridin-3-yl)-6-(((4-methylpyridin-2-yl)methyl)amino)-9H-purin-9-yl)-3,4-dihydroxyl-N-methyltetrahydrofuran-2-carboxamide] | < 0.51 | 1.93 | 757.44
CNC(=O)[C@H]1O[C@@H](n2cnc3c(NCc4cc(C)ccn4)nc(-c4cccnc4)nc32)[C@H](O)[C@@H]1O [compound 186, (2S,3S,4R,5R)-3,4-dihydroxyl-N-methyl-5-(6-((4-methylpyridin-2-yl)methylamino)-2-(pyridin-3-yl)-9H-purin-9-yl)-tetrahydrofuran-2-formamide] | < 0.51 | 11.8 | 786.27
CNC(=O)[C@H]1O[C@@H](n2cnc3c(NCc4cc(C)ccn4)nc(-c4cncc(OC)c4)nc32)[C@H](O)[C@@H]1O [compound 312] | < 0.51 | 4.05 | 1820.66
[2H]C([2H])([2H])NC(=O)[C@H]1O[C@@H](n2cnc3c(NCc4ccco4)nc(-c4cncc(Cl)c4)nc32)[C@H](O)[C@@H]1O [compound 256, (2S,3S,4R,5R)-5-(2-(5-chloropyridin-3-yl)-6-((furan-2-ylmethyl)amino)-9H-purin-9-yl)-3,4-dihydroxyl-N-(methyl-d3)tetrahydrofuran-2-carboxamide] | 11.6 | 98.5 | 706.00
CNC(=O)[C@H]1O[C@@H](n2cnc3c(NCc4cc(C)ccc4F)nc(-c4cncc(Cl)c4)nc32)[C@H](O)[C@@H]1O [compound 226, (2S,3S,4R,5R)-5-(2-(5-chloropyridin-3-yl)-6-((2-fluoro-5-methylbenzyl)amino)-9H-purin-9-yl)-3,4-dihydroxyl-N-methyltetrahydrofuran-2-carboxamide] | 1.2 | 33.5 | 20055.61
CNC(=O)[C@H]1O[C@@H](n2cnc3c(NCc4cc(Cl)ccn4)nc(-c4cncc(Cl)c4)nc32)[C@H](O)[C@@H]1O [compound 184, (2S,3S,4R,5R)-5-(6-((4-chloropyridin-2-yl)methylamino)-2-(5-chloropyridin-3-yl)-9H-purin-9-yl)-3,4-dihydroxyl-N-methyl-tetrahydrofuran-2-formamide] | < 0.51 | 13 | 
CNC(=O)[C@H]1O[C@@H](n2cnc3c(NCc4cccc(OC)n4)nc(-c4cncc(Cl)c4)nc32)[C@H](O)[C@@H]1O [compound 159] | 4.42 | 59.3 | 
CNC(=O)[C@H]1O[C@@H](n2cnc3c(NCc4cc(C)ccc4Cl)nc(-c4cncc(Cl)c4)nc32)[C@H](O)[C@@H]1O [compound 177, (2S,3S,4R,5R)-5-(6-(2-chloro-5-methylbenzylamino)-2-(5-chloropyridin-3-yl)-9H-purin-9-yl)-3,4-dihydroxyl-N-methyl-tetrahydrofuran-2-formamide] | 2.08 | 70.3 | 5247.70
CNC(=O)[C@H]1O[C@@H](n2cnc3c(NCc4cc(OC)ccn4)nc(-c4cncc(Cl)c4)nc32)[C@H](O)[C@@H]1O [compound 296, (2S,3S,4R,5R)-5-(2-(5-chloropyridin-3-yl)-6-(((4-methoxypyridin-2-yl)methyl)amino)-9H-purin-9-yl)-3,4-dihydroxyl-N-methyltetrahydrofuran-2-carboxamide] | 1.28 | 53.6 | 
CNC(=O)[C@H]1OC(n2cnc3c(NCc4ccccn4)nc(-c4cncc(F)c4)nc32)[C@H](O)[C@@H]1O (stereo in doubt) [compound 305, (2S,3S,4R,5S)-5-(2-(5-fluoropyridin-3-yl)-6-((pyridin-2-ylmethyl)amino)-9H-purin-9-yl)-3,4-dihydroxyl-N-methyltetrahydrofuran-2-carboxamide] | 2.73 | 10.9 | 161.47
CNC(=O)[C@H]1O[C@@H](n2cnc3c(NCc4cc(Cl)ccn4)nc(-c4cncc(F)c4)nc32)[C@H](O)[C@@H]1O [compound 183, (2S,3S,4R,5R)-5-(6-((4-chloropyridin-2-yl)methylamino)-2-(5-fluoropyridin-3-yl)-9H-purin-9-yl)-3,4-dihydroxyl-N-methyl-tetrahydrofuran-2-formamide] | < 0.51 | 9.07 | 947.63
CNC(=O)[C@H]1O[C@@H](n2cnc3c(NCc4cccc(Cl)n4)nc(-c4cncc(Cl)c4)nc32)[C@H](O)[C@@H]1O [compound 308] | 3.27 | 71.4 | 986.00
CNC(=O)[C@H]1O[C@@H](n2cnc3c(NCc4cccc(C)n4)nc(-c4cncc(F)c4)nc32)[C@H](O)[C@@H]1O [compound 106] | 3.02 | 17.6 | 521.57
CNC(=O)[C@H]1O[C@@H](n2cnc3c(NCc4cc(C)ccn4)nc(-c4cncc(Cl)c4)nc32)[C@H](O)[C@@H]1O [compound 293, (2S,3S,4R,5R)-5-(2-(5-chloropyridin-3-yl)-6-(((4-methylpyridin-2-yl)methyl)amino)-9H-purin-9-yl)-3,4-dihydroxyl-N-methyltetrahydrofuran-2-carboxamide] | < 0.51 | 3.27 | 2016.46
CNC(=O)[C@H]1O[C@@H](n2cnc3c(NCc4ccccn4)nc(-c4cncc(Cl)c4)nc32)[C@H](O)[C@@H]1O [compound 306, (2S,3S,4R,5S)-5-(2-(5-chloropyridin-3-yl)-6-((pyridin-2-lymethyl)amino)-9H-purin-9-yl)-3,4-dihydroxyl-N-methyltetrahydrofuran-2-carboxamide] | 5.81 | 39.2 | 659.04
CNC(=O)[C@H]1O[C@@H](n2cnc3c(NCc4cccc(C)n4)nc(-c4cncc(Cl)c4)nc32)[C@H](O)[C@@H]1O [compound 112] | 3.53 | 44.4 | 1790.18
CNC(=O)[C@H]1O[C@@H](n2cnc3c(NCc4cc(C)ccc4F)nc(-c4cccnc4)nc32)[C@H](O)[C@@H]1O [compound 191, (2S,3S,4R,5R)-5-(6-(2-fluoro-5-methylbenzylamino)-2-(pyridin-3-yl)-9H-purin-9-yl)-3,4-dihydroxyl-N-methyl-tetrahydrofuran-2-formamide] |  | 5.29 | 1183.39
